Assay results reported in patent publication US20030148925A1, “Insulin formulation for inhalation” (priority 2000, published 2003).

Conditions: dog, in vivo
Method: The objective of this study was to determine the bioavailability of 4 novel insulin dry powder formulations following administration by the inhalation route. Each test formulation was administered to 5 dogs and the plasma insulin and whole blood glucose levels were determined. Comparative bioavailability was assessed against a marketed insulin formulation (E) administered subcutaneously. Inhalation administration was undertaken via a surgically prepared tracheostome to allow direct entry to the bronchiopulmonary region of the lungs.
The four test materials coded A-D (for inhalation administration), were supplied as spray-dried powder formulations in glass vials, whilst formulation E (for subcutaneous administration) was supplied as a liquid. Formulations A-D were stored in the dark at ambient room temperature, whilst formulation E was stored at +4° C.
Formulation E (Humulin S) was supplied as a 100 IU/ml solution. The dose required for the pilot phase of the study was 1.5 IU/dog. Due to the small volumes of Humulin S required, this formulation was diluted with sterile water for injection to allow larger volumes of the correct dose level to be administered.
For the main study, 5 dogs (Animals 2-6) were used. Initially each dog received a subcutaneous dose of insulin (1.5 IU) to provide comparative plasma insulin and whole blood glucose levels. Following a minimum 2-3 day wash-out period, each dog was administered one of the 4 insulin formulations, in a randomised order, by direct inhalation exposure (7.5 IU) to an aerosol bolus delivered via a surgically prepared tracheostome. The remaining 3 insulin formulations were administered in a similar manner at approximately 2 day intervals. The tracheostome was surgically prepared, with the dogs under general anaesthesia, approximately 2 weeks before dosing.
The administered doses of insulin were derived by analytical determination by subtracting the amount of insulin retained in the dosing device from the total insulin loaded. The actual insulin units delivered are calculated based on the assumption that each milligram of insulin is equivalent to 28.6 units.
Serial blood samples were obtained on each day of treatment to determine plasma insulin and whole blood glucose levels.
A linear trapezoidal calculation of the area under the curve (AUC) was used to derive the values from the overall mean insulin blood concentration data.

Question: Which “AUC Normalised (Relative %)” value does the source give for “20% Zinc Insulin in Trehalose [Formulation D]” here?
Answer: (17.0) %

Question: And the “AUC Normalised (relative to the subcutaneous dose of 1.5 units)” value?
Answer: 495 uU.min/ml

Question: What about the “AUC Per Dose” value of the same substance?
Answer: 2355 uU.min/ml

Question: And the “rank of AUC following normalisation to the doses administered” value?
Answer: highest AUC

Question: Which “AUC Normalised (Relative %)” value does the source give for “95% Zinc Insulin in Trehalose [Formulation C]” here?
Answer: (6.4) %

Question: And the “AUC Normalised (relative to the subcutaneous dose of 1.5 units)” value?
Answer: 188 uU.min/ml

Question: And the “AUC Per Dose” value?
Answer: 625 uU.min/ml

Question: Which “AUC Normalised (Relative %)” value does the source give for Humulin S [Formulation E] here?
Answer: (100) %

Question: What about the “AUC Normalised (relative to the subcutaneous dose of 1.5 units)” value of the same substance?
Answer: 2916 uU.min/ml

Question: What about the “AUC Per Dose” value of the same substance?
Answer: 2916 uU.min/ml

Question: Which “AUC Normalised (Relative %)” value does the source give for Insulin Without Zinc [Formulation B] here?
Answer: (8.0) %

Question: And the “AUC Normalised (relative to the subcutaneous dose of 1.5 units)” value?
Answer: 234 uU.min/ml

Question: What about the “AUC Per Dose” value of the same substance?
Answer: 773 uU.min/ml

Question: Which results are given for Zinc Insulin [Formulation A]?
Answer: AUC Normalised (Relative %): (4.2) %; AUC Normalised (relative to the subcutaneous dose of 1.5 units): 123 uU.min/ml; AUC Per Dose: 657 uU.min/ml
